Earlier results as cited in patent US20100137247A1, “Anti-inflammatory compositions and methods” (Searete LLC, a limited liability corporation of the State …, priority 2008, published 2010).
Values belong to the compound of their own block, whether it stands above or below them.

What was measured:
[1] = system: proteasomal activity in cultured breast cancer cells; details: disulfiram bound to copper
[2] = system: Src family kinase
[3] = system: lethal septic shock; details: mice
[4] = 400 mg infused over one hour, single agent

SMILES: CCN(CC)C(=S)SSC(=S)N(CC)CC [Disulfiram, 1-(diethylthiocarbamoyldisulfanyl)-N,N-diethyl-methanethioamide]
proteasomal activity [1]: inhibits proteasomal activity

inhibition of CpG-induced Src family kinase activation or its dependent cellular responses [2]: does not inhibit
SMILES: CCN(CC)CCCC(C)Nc1ccnc2cc(Cl)ccc12 (stereo not shown) [Chloroquine]

SMILES: Cl.Cl.Nc1ccccc1Oc1ccc2c(N)nsc2c1 [Example M62812, 3-amino-6-(2-aminophenoxy)-1,2-benzisothiazole dihydrochloride]
prevention of lethal septic shock [3]: prevents lethal septic shock

SMILES: CCN(CC)CCCC(C)Nc1ccnc2cc(Cl)ccc12.O=P(O)(O)O.O=P(O)(O)O (stereo not shown) [Chloroquine phosphate, 7-chloro-4-[[4-(diethylamino)-1-methylbutyl]amino]quinoline phosphate (1:2)]
tolerability of infusion [4]: without complication
